Experimental data as given in PMC11671014 (PLOS Pathogens, 2024).
“Also recorded” adds a separate entry of the source. Where two headings read alike, the source gives them in different places.

Experiments:
[1] = test system: stage V NF54 strain male and female gametocytes; design: method as in ref [1] Xie et al., Science 2022; conditions: 48 h, ref [1] Xie et al., Science 2022, cited from earlier work
[2] = test system: P. falciparum liver stage schizont (NF175); design: method as in ref [1] Xie et al., Science 2022; conditions: ref [1] Xie et al., Science 2022; cited from earlier work
[3] = test system: P. falciparum (Pf3D7^0087/N9); experiment: Therapeutic efficacy and tolerability in the SCID mouse P. falciparum model; type: in vivo, Plasmodium falciparum in NODscidIL2Rγ^null mice
Description: The model using P. falciparum Pf3D7^0087/N9 in NODscidIL2Rγ^null mice engrafted with human RBCs was adapted from a previously described procedure. Female NODscidIL2Rγ^null mice were purchased from Charles River (Germany). Briefly, two engrafted mice/dosing group (females, 20–22 g) were infected intravenously with 2 x 10^7 P. falciparum (Pf3D7^0087/N9) on day 0. The antimalarial efficacy was assessed following administration (p.o.) of 100 or 200 mg/kg of compound or of 4 daily doses of 50 mg/kg, initiated on day 3 post-infection. The effect on blood parasitemia was measured by microscopic analysis of Giemsa-stained blood smears (on days 3, 4, 5, 6 and 7 post-infection). Mice were euthanized on day 7. Animal were monitored for symptoms of acute toxicity, including decreased activity, sunken flanks, ataxia and blood in faeces.

[4] = test system: P. falciparum (strain 3D7A); experiment: Parasite Reduction Rate (PRR) estimation; type: cell-based, Plasmodium falciparum; conditions: 10 x IC50
Description: PRR was assessed using a standardized method. P. falciparum (strain 3D7A, MRA-151), contributed by David Walliker, was obtained through BEI Resources, NIAID, NIH. Cultures of parasites (~90% ring stage) were treated with compounds for 120 h, with daily renewal. Samples of parasites were taken at 0, 24, 48, 72, 96 and 120 h. Compounds were washed out and four independent 3-fold serial dilutions were established in 96-well plates, with fresh RBCs and culture medium. After 18 days, and again at 22 days, samples were taken to examine growth using SYBR Green I in an EnVision Multilabel Plate Reader (Perkin Elmer) and analysed using Excel and Grafit 5.0 software. The human biological samples were sourced ethically, and their research use was in accord with the terms of the informed consents under an IRB/EC approved protocol.

[5] = test system: P. falciparum liver stage schizont (NF175); experiment: Liver stage schizont assay in primary human hepatocytes (NF175); type: cell-based; conditions: Plasmodium falciparum, Hepatocyte, 96 h, four days
Description: Activity against liver stage parasites was performed using a modification of published procedures. Briefly, cryopreserved human primary hepatocytes (NF175: H1500.H15B+ Lot No. HC0-6, TebuBio or NF135: F00995-P Lot No. IRZ, BioIVT) were thawed and seeded at 18,000 cells per well in collagen-coated 384-well microtiter plates in medium containing 10% heat inactivated fetal bovine serum (hiFBS). Cells were cultured at 37°C in 5% CO2. For NF175, medium was replaced by fresh medium containing 10% hiFBS, 5 h post plating. For NF135, medium was replaced by medium containing 0.2% BSA, 24 h post plating. 48 h post plating, salivary glands from Plasmodium-NF175 or NF135-infected Anopheles stephensi mosquitoes were dissected, added to the hepatocytes (10,000 per well/ NF175; or 12,500 per well/ NF135) and allowed to infect for 3 hours. Sporozoites were then aspirated, and compounds diluted in medium containing 10% hiFBS or 0.2% BSA, were added to the hepatocytes. Medium containing 10% hiFBS or 0.2% BSA and compounds was refreshed daily for four days. […] Cells were imaged on a PicoExpress high content imager, and images were analysed automatically using CellReporterXpress software. Data were analysed by logistic regression using a four-parameter (Hill equation) model and a least-squares method to find the best fit.

[6] = Rat pharmacokinetics; type: in vivo, Sprague-Dawley rats; conditions: for half-life: read-out: T1/2z (converted)
Description: Sprague-Dawley rats (11 weeks old) were sourced from Hilltop Lab Animals, Inc (Scottdale, Pennsylvania, USA). […] Blood was collected from a jugular cannula at 0.083, 0.25, 0.5, 1, 2, 4, 8 and 24 h post i.v. dosing, and at the same times (except the 0.083-h sample) following oral administration. A portion of the blood samples were processed into plasma. Samples were precipitated with 0.5% formic acid in methanol and the supernatants were analysed by positive ion electrospray LC-MS for the administered compound. Non-compartmental pharmacokinetic parameters were calculated from individual concentration vs time profiles using Phoenix 64 WinNonlin (Version 8.1 Certara, Princeton NJ).

[7] = male, Sprague-Dawley, IV 1 mg/kg, plasma
[8] = male, Sprague-Dawley, PO 1 mg/kg, plasma
[9] = male, Sprague-Dawley, PO 10 mg/kg, plasma
[10] = male, Sprague-Dawley, PO 25 mg/kg, plasma
[11] = male, Sprague-Dawley, whole blood, IV 1 mg/kg, blood
[12] = male, Sprague-Dawley, whole blood, PO 1 mg/kg, blood
[13] = male, Sprague-Dawley, whole blood, PO 10 mg/kg, blood
[14] = male, Sprague-Dawley, whole blood, PO 25 mg/kg, blood

Compound: Nc1ncnc2c1c(OC(F)F)nn2[C@@H]1O[C@H](COS(N)(=O)=O)[C@@H](O)[C@H]1O [ML901]
- IC50 ([1]; female, read-out: Dual gamete formation assay (female) IC50(48h)): 4700 nM
- IC50 ([1]; male, read-out: Dual gamete formation assay (male) IC50(48h)): 130 ± 10 nM
- IC50 [2]: 13 ± 5 nM

Compound: CC(C)c1nn([C@@H]2O[C@H](COS(N)(=O)=O)[C@@H](O)[C@H]2O)c2ncnc(N)c12 [ML471, ((2R,3S,4R,5R)-5-(4-amino-3-isopropyl-1H-pyrazolo[3,4-d]pyrimidin-1-yl)-3,4-dihydroxytetrahydrofuran-2-yl)methyl sulfamate]
- effect on 3D7 parasitemia, 4 x daily doses ([3]; 4 x daily doses of 50 mg/kg p.o. from day 3 post-infection): reduced the 3D7 parasitemia to baseline
- tolerability / toxicity in SCID mice (in words) ([3]; 100 or 200 mg/kg p.o. single dose, 4 x 50 mg/kg p.o.): well tolerated; also recorded: no evidence of toxicity
- effect on 3D7 parasitemia, single dose regimen ([3]; either 100 or 200 mg/kg p.o. on day 3 post-infection): reduction of 3D7 parasitemia to baseline
- Lag phase [4]: 0 h
- Log PRR [4]: 4.1
- PCT99.9% [4]: 32 h
- Slope [4]: -0.09
- IC50 [5]: 2.8 nM
- dose recovered in 0–24 h urine as parent ([6]; 0–24 h urine): 9–38 % of the dose
- area under the curve ([6]; 25 mg/kg p.o., blood): 30 µM·h
- blood clearance as share of liver blood flow ([6]; IV dose of 1 mg/kg): ~ 4 % of liver blood flow
- Cmax [6, 7]: 1540 nM
- Tmax [6, 7]: 0.08 h
- clearance [6, 7]: 64 mL/min/kg
- half-life [6, 7]: 2.22 h
- Cmax [6, 8]: 19.1 nM
- Tmax [6, 8]: 0.5 h
- bioavailability ([6]; male, Sprague-Dawley, PO 1 mg/kg, plasma, read-out: %F): 27.7%
- half-life [6, 8]: 8.78 h
- Cmax [6, 9]: 196 nM
- Tmax [6, 9]: 0.38 h
- bioavailability ([6]; male, Sprague-Dawley, PO 10 mg/kg, plasma, read-out: %F): 25.2%
- half-life [6, 9]: 9.15 h
- Cmax [6, 10]: 393 nM
- Tmax [6, 10]: 0.75 h
- bioavailability ([6]; male, Sprague-Dawley, PO 25 mg/kg, plasma, read-out: %F): 16.4%
- half-life [6, 10]: 3.57 h
- Vd ([6]; male, Sprague-Dawley, plasma, iv, 1 mg/kg, IV 1 mg/kg, plasma, read-out: Vss): 2.79 L/kg
- Vd ([6]; male, Sprague-Dawley, plasma, iv, 1 mg/kg, IV 1 mg/kg, plasma, read-out: Vz): 12.3 L/kg
- blood plasma ratio at 0.083 h ([6]; male, Sprague-Dawley, whole blood and plasma, intravenous, 1 mg/kg, time 0.083 h): 0.8
- blood plasma ratio at 0.25 h ([6]; male, Sprague-Dawley, whole blood and plasma, intravenous, 1 mg/kg, time 0.25 h): 1.5
- blood plasma ratio at 0.5 h ([6]; male, Sprague-Dawley, whole blood and plasma, intravenous, 1 mg/kg, time 0.5 h): 2.1
- blood plasma ratio at 1 h ([6]; male, Sprague-Dawley, whole blood and plasma, intravenous, 1 mg/kg, time 1 h): 5.5
- blood plasma ratio at 2 h ([6]; male, Sprague-Dawley, whole blood and plasma, intravenous, 1 mg/kg, time 2 h): 17.8
- blood plasma ratio at 4 h ([6]; male, Sprague-Dawley, whole blood and plasma, intravenous, 1 mg/kg, time 4 h): 48.9
- blood plasma ratio at 8 h ([6]; male, Sprague-Dawley, whole blood and plasma, intravenous, 1 mg/kg, time 8 h): 114
- blood plasma ratio ([6]; male, Sprague-Dawley, whole blood and plasma, iv, 1 mg/kg, i.v. PK study, read-out: blood to plasma ratio at the initial sampling times): ~1
- Cmax [6, 11]: 1180 nM
- Tmax [6, 11]: 0.17 h
- clearance [6, 11]: 2.3 mL/min/kg
- half-life [6, 11]: 36.6 h
- Cmax [6, 12]: 39.3 nM
- Tmax [6, 12]: 16 h
- bioavailability ([6]; male, Sprague-Dawley, whole blood, PO 1 mg/kg, blood, read-out: %F): 9.29%
- half-life [6, 12]: 23.2 h
- Cmax [6, 13]: 261 nM
- Tmax [6, 13]: 6 h
- bioavailability ([6]; male, Sprague-Dawley, whole blood, PO 10 mg/kg, blood, read-out: %F): 9.56%
- half-life [6, 13]: 29.5 h
- Cmax [6, 14]: 669 nM
- Tmax [6, 14]: 8 h
- bioavailability ([6]; male, Sprague-Dawley, whole blood, PO 25 mg/kg, blood, read-out: %F): 8.72%
- half-life ([6]; male, Sprague-Dawley, whole blood, PO 25 mg/kg, blood, terminal half-life, T1/2∞): 30.5 h
- Vd ([6]; male, Sprague-Dawley, whole blood, iv, 1 mg/kg, IV 1 mg/kg, blood, read-out: Vss): 6.25 L/kg
- Vd ([6]; male, Sprague-Dawley, whole blood, iv, 1 mg/kg, IV 1 mg/kg, blood, read-out: Vz): 6.54 L/kg
- bioavailability ([6]; male, Sprague-Dawley, whole blood, oral, blood, range over doses, read-out: %F (blood), rat oral bioavailability): 8.72 to 9.56%
